Source: patent US20100267561A1, “HERBICIDAL PYRIDAZINONE DERIVATIVES” (priority 2007, published 2010)

Columns and labels:
Assay in all cases: Test B pre-/postemergence plant response
Type in all cases: in vivo
[1] = test system: Russian thistle (Salsola iberica); conditions: Preemergence
Source text: (§1) Seeds of plant species selected from blackgrass (Alopecurus myosuroides), downy bromegrass (Bromus tectorum), green foxtail (Setaria viridis), Italian ryegrass (Lolium multiflorum), wheat (Triticum aestivum), wild oat (Avena fatua), catchweed bedstraw (Galium aparine), bermudagrass (Cynodon dactylon), surinam grass (Brachiaria decumbens), cocklebur (Xanthium strumarium), corn (Zea mays), large crabgrass (Digitaria sanguinalis), woolly cupgrass (Eriochloa villosa), giant foxtail (Setaria faberii), goosegrass (Eleusine indica), johnsongrass (Sorghum halepense), kochia (Kochia scoparia), lambsquarters (Chenopodium album), morningglory (Ipomoea coccinea), eastern black (E.B.) nightshade (Solanum ptycanthum), yellow nutsedge (Cyperus esculentus), pigweed (Amaranthus retroflexus), common ragweed (Ambrosia elation), Russian thistle (Salsola iberica), soybean (Glycine max), common (oilseed) sunflower (Helianthus annuus), and velvetleaf (Abutilon theophrasti) were planted and treated preemergence with test chemicals formulated in a non-phytotoxic solvent mixture which included a surfactant.
(§2) At the same time, plants selected from these crop and weed species and also winter barley (Hordeum vulgare), canarygrass (Phalaris minor), chickweed (Stellaria media) and windgrass (Apera spica-venti) were treated with postemergence applications of some of the test chemicals formulated in the same manner. Plants ranged in height from 2 to 18 cm (1- to 4-leaf stage) for postemergence treatments.
(§3) Plant species in the flooded paddy test consisted of rice (Oryza sativa), umbrella sedge (Cyperus difformis), ducksalad (Heteranthera limosa) and barnyardgrass (Echinochloa crus-galli) grown to the 2-leaf stage for testing. At time of treatment, test pots were flooded to 3 cm above the soil surface, treated by application of test compounds directly to the paddy water, and then maintained at that water depth for the duration of the test. Treated plants and controls were maintained in a greenhouse for 13 to 15 days, after which time all species were compared to controls and visually evaluated. Plant response ratings, summarized in Table B, are based on a scale of 0 to 100 where 0 is no effect and 100 is complete control. A dash (-) response means no test result.

[2] = test system: blackgrass (Alopecurus myosuroides)
Source text: as §1, §2, §3

[3] = test system: cocklebur (Xanthium strumarium); conditions: for Cocklebur plant response rating: 8 g ai/ha
Source text: as §1, §2, §3

[4] = test system: common (oilseed) sunflower (Helianthus annuus); conditions: Preemergence
Source text: as §1, §2, §3

[5] = test system: common ragweed (Ambrosia elation); conditions: for Ragweed plant response rating: 8 g ai/ha
Source text: as §1, §2, §3

[6] = test system: corn (Zea mays); conditions: for Corn plant response rating: 8 g ai/ha
Source text: as §1, §2, §3

[7] = test system: downy bromegrass (Bromus tectorum); conditions: for Bromegrass, Downy plant response rating: 8 g ai/ha
Source text: as §1, §2, §3

[8] = test system: eastern black (E.B.) nightshade (Solanum ptycanthum); conditions: Preemergence
Source text: as §1, §2, §3

[9] = test system: green foxtail (Setaria viridis); conditions: for Foxtail, Green plant response rating: 8 g ai/ha
Source text: as §1, §2, §3

[10] = test system: surinam grass (Brachiaria decumbens); conditions: for Surinam Grass plant response rating: 8 g ai/ha
Source text: as §1, §2, §3

[11] = test system: wheat (Triticum aestivum); conditions: for Wheat plant response rating: 8 g ai/ha
Source text: as §1, §2, §3

[12] = test system: wild oat (Avena fatua); conditions: for Oat, Wild plant response rating: 8 g ai/ha
Source text: as §1, §2, §3

[13] = test system: woolly cupgrass (Eriochloa villosa); conditions: for Cupgrass, Woolly plant response rating: 8 g ai/ha
Source text: as §1, §2, §3

[14] = test system: yellow nutsedge (Cyperus esculentus); conditions: for Nutsedge, Yellow plant response rating: 8 g ai/ha
Source text: as §1, §2, §3

[15] = 16 g ai/ha, scale 0 to 100 (0 no effect, 100 complete control)
[16] = 31 g ai/ha, 0 to 100 scale, 0 no effect, 100 complete control
[17] = Postemergence, 16 g ai/ha, scale 0 to 100
[18] = Postemergence, 31 g ai/ha, scale 0 to 100, 0 no effect, 100 complete control
[19] = Postemergence, 62 g ai/ha, scale 0 to 100, 0 no effect, 100 complete control
[20] = Preemergence, 16 g ai/ha, scale 0 to 100 (0 no effect, 100 complete control)
[21] = Preemergence, 31 g ai/ha, 0 to 100 scale, 0 no effect, 100 complete control
[22] = Preemergence, 62 g ai/ha, scale 0 to 100

SMILES: Cc1cc(-c2ccc(Cl)cc2)nn1-c1c(OC(=O)c2cccc(Cl)c2)cnn(C)c1=O [Compound 32]
- Plant response rating, Russian Thistle [1, 15]: 0
- Plant response rating, Russian Thistle [1, 16]: 0
- Plant response rating, Russian Thistle ([1]; 62 g ai/ha, scale 0 to 100): 0
- Russian Thistle plant response rating ([1]; 8 g ai/ha, scale 0 to 100): 0
- Blackgrass plant response rating ([2]; 8 g ai/ha, postemergence, 0-100 scale): 30
- Plant response rating, Blackgrass [2, 17]: 35
- Plant response rating, Blackgrass [2, 18]: 70
- Plant response rating, Blackgrass [2, 19]: 70
- Plant response rating, Blackgrass [2, 20]: 85
- Plant response rating, Blackgrass [2, 21]: 95
- Plant response rating, Blackgrass [2, 22]: 98
- Cocklebur plant response rating ([3]; postemergence, 0-100 scale): 0
- Plant response rating, Cocklebur [3, 17]: 0
- Plant response rating, Cocklebur [3, 18]: 0
- Plant response rating, Cocklebur [3, 19]: 0
- Plant response rating, Cocklebur [3, 20]: 0
- Plant response rating, Cocklebur [3, 21]: 0
- Plant response rating, Cocklebur [3, 22]: 0
- Cocklebur plant response rating ([3]; Preemergence, scale 0 to 100): 0
- Plant response rating, Sunflower [4, 15]: 0
- Plant response rating, Sunflower [4, 16]: 0
- Plant response rating, Sunflower ([4]; 62 g ai/ha, scale 0 to 100): 0
- Sunflower plant response rating ([4]; 8 g ai/ha, scale 0 to 100): 0
- Ragweed plant response rating ([5]; postemergence, 0-100 scale): 0
- Plant response rating, Ragweed [5, 17]: 0
- Plant response rating, Ragweed [5, 18]: 0
- Plant response rating, Ragweed [5, 19]: 0
- Plant response rating, Ragweed [5, 20]: 0
- Plant response rating, Ragweed [5, 21]: 0
- Plant response rating, Ragweed [5, 22]: 0
- Ragweed plant response rating ([5]; Preemergence, scale 0 to 100): 0
- Corn plant response rating ([6]; postemergence, 0-100 scale): 0
- Plant response rating, Corn [6, 17]: 0
- Plant response rating, Corn [6, 18]: 0
- Plant response rating, Corn [6, 19]: 0
- Plant response rating, Corn [6, 20]: 45
- Plant response rating, Corn [6, 21]: 60
- Plant response rating, Corn [6, 22]: 95
- Corn plant response rating ([6]; Preemergence, scale 0 to 100): 0
- Bromegrass, Downy plant response rating ([7]; postemergence, 0-100 scale): 5
- Plant response rating, Bromegrass, Downy [7, 17]: 10
- Plant response rating, Bromegrass, Downy [7, 18]: 45
- Plant response rating, Bromegrass, Downy [7, 19]: 60
- Plant response rating, Bromegrass, Downy [7, 20]: 0
- Plant response rating, Bromegrass, Downy [7, 21]: 0
- Plant response rating, Bromegrass, Downy [7, 22]: 75
- Bromegrass, Downy plant response rating ([7]; Preemergence, scale 0 to 100): 0
- Plant response rating, Nightshade, E. B. [8, 15]: 0
- Plant response rating, Nightshade, E. B. [8, 16]: 0
- Plant response rating, Nightshade, E. B. ([8]; 62 g ai/ha, scale 0 to 100): 0
- Nightshade, E. B. plant response rating ([8]; 8 g ai/ha, scale 0 to 100): 0
- Foxtail, Green plant response rating ([9]; postemergence, 0-100 scale): 60
- Plant response rating, Foxtail, Green [9, 17]: 60
- Plant response rating, Foxtail, Green [9, 18]: 90
- Plant response rating, Foxtail, Green [9, 19]: 95
- Plant response rating, Foxtail, Green [9, 20]: 100
- Plant response rating, Foxtail, Green [9, 21]: 100
- Plant response rating, Foxtail, Green [9, 22]: 100
- Foxtail, Green plant response rating ([9]; Preemergence, scale 0 to 100): 70
- Surinam Grass plant response rating ([10]; postemergence, 0-100 scale): 65
- Plant response rating, Surinam Grass [10, 17]: 70
- Plant response rating, Surinam Grass [10, 19]: 98
- Plant response rating, Surinam Grass [10, 20]: 75
- Plant response rating, Surinam Grass [10, 21]: 100
- Plant response rating, Surinam Grass [10, 22]: 100
- Surinam Grass plant response rating ([10]; Preemergence, scale 0 to 100): 70
- Wheat plant response rating ([11]; postemergence, 0-100 scale): 0
- Plant response rating, Wheat [11, 17]: 30
- Plant response rating, Wheat [11, 20]: 0
- Plant response rating, Wheat [11, 21]: 20
- Plant response rating, Wheat [11, 22]: 70
- Wheat plant response rating ([11]; Preemergence, scale 0 to 100): 0
- Oat, Wild plant response rating ([12]; postemergence, 0-100 scale): 60
- Plant response rating, Oat, Wild [12, 17]: 85
- Plant response rating, Oat, Wild [12, 18]: 95
- Plant response rating, Oat, Wild [12, 19]: 95
- Plant response rating, Oat, Wild [12, 20]: 0
- Plant response rating, Oat, Wild [12, 21]: 60
- Plant response rating, Oat, Wild [12, 22]: 80
- Oat, Wild plant response rating ([12]; Preemergence, scale 0 to 100): 0
- Cupgrass, Woolly plant response rating ([13]; postemergence, 0-100 scale): 75
- Plant response rating, Cupgrass, Woolly [13, 17]: 85
- Plant response rating, Cupgrass, Woolly [13, 18]: 100
- Plant response rating, Cupgrass, Woolly [13, 19]: 100
- Plant response rating, Cupgrass, Woolly [13, 20]: 70
- Plant response rating, Cupgrass, Woolly [13, 21]: 80
- Plant response rating, Cupgrass, Woolly [13, 22]: 85
- Cupgrass, Woolly plant response rating ([13]; Preemergence, scale 0 to 100): 55
- Nutsedge, Yellow plant response rating ([14]; postemergence, 0-100 scale): 0
- Plant response rating, Nutsedge, Yellow [14, 17]: 0
- Plant response rating, Nutsedge, Yellow [14, 18]: 0
- Plant response rating, Nutsedge, Yellow [14, 19]: 0
- Plant response rating, Nutsedge, Yellow [14, 20]: 0
- Plant response rating, Nutsedge, Yellow [14, 21]: 0
- Plant response rating, Nutsedge, Yellow [14, 22]: 0
- Nutsedge, Yellow plant response rating ([14]; Preemergence, scale 0 to 100): 0
